# Data from the supplement of paper PMC10307832.
# Key:
# Assay in all cases: relative viability (nuclei count vs DMSO), 5 days (fraction); higher = more cells survive
# IU1-47 + OSI-027 = compound: CC1=CC(=C(N1C2=CC=C(C=C2)Cl)C)C(=O)CN3CCCCC3 [IU1-47] + COc1cccc2cc(-c3nc([C@H]4CC[C@H](C(=O)O)CC4)n4ncnc(N)c34)[nH]c12 [OSI-027] (partner 0.5 µM)
# Method in brief: (§1)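 Relative viability is defined as nuclei in treated wells over nuclei in vehicle wells. Duplicate plates were run and medians reported. Lung cancer cell lines in 1536-well plates were dosed by pin tool one day after seeding, with one drug or with a fixed anchor-drug dose plus five library-drug doses (not always all listed) in √10 steps, and nuclei were counted after 5 days.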
# IU1-47 + Phenformin = compound: CC1=CC(=C(N1C2=CC=C(C=C2)Cl)C)C(=O)CN3CCCCC3 [IU1-47] + N=C(N)NC(=N)NCCc1ccccc1 [Phenformin] (partner 250 µM)
# Method in brief: as §1
# IU1-47 + Linsitinib = compound: CC1=CC(=C(N1C2=CC=C(C=C2)Cl)C)C(=O)CN3CCCCC3 [IU1-47] + C[C@]1(O)C[C@@H](c2nc(-c3ccc4ccc(-c5ccccc5)nc4c3)c3c(N)nccn32)C1 [Linsitinib] (partner 1 µM)
# Method in brief: as §1
# FG-4592 + Luminespib = compound: Cc1nc(C(=O)NCC(=O)O)c(O)c2ccc(Oc3ccccc3)cc12 [FG-4592] + CCNC(=O)c1noc(-c2cc(C(C)C)c(O)cc2O)c1-c1ccc(CN2CCOCC2)cc1 [Luminespib] (partner 0.01 µM)
# Method in brief: as §1
Cell Line,relative viability (IU1-47 + OSI-027; first compound 0.08 µM),relative viability (IU1-47 + OSI-027; first compound 0.253 µM),relative viability (IU1-47 + OSI-027; first compound 0.8 µM),relative viability (IU1-47 + OSI-027; first compound 2.53 µM),relative viability (IU1-47 + OSI-027; first compound 8 µM),relative viability (IU1-47 + Phenformin; first compound 0.08 µM),relative viability (IU1-47 + Phenformin; first compound 0.253 µM),relative viability (IU1-47 + Phenformin; first compound 0.8 µM),relative viability (IU1-47 + Phenformin; first compound 8 µM),relative viability (IU1-47 + Linsitinib; first compound 0.08 µM),relative viability (IU1-47 + Linsitinib; first compound 0.253 µM),relative viability (IU1-47 + Linsitinib; first compound 0.8 µM),relative viability (IU1-47 + Linsitinib; first compound 8 µM),relative viability (FG-4592 + Luminespib; first compound 0.08 µM),relative viability (FG-4592 + Luminespib; first compound 0.253 µM),relative viability (FG-4592 + Luminespib; first compound 0.8 µM),relative viability (FG-4592 + Luminespib; first compound 2.53 µM),relative viability (FG-4592 + Luminespib; first compound 8 µM),relative viability (IU1-47 + Linsitinib; first compound 2.53 µM),relative viability (IU1-47 + Phenformin; first compound 2.53 µM)
NCI-H1648,0.264,0.295,0.251,0.266,0.277,–,–,–,–,–,–,–,–,–,–,–,–,–,–,–
A549,–,–,–,–,–,0.165,0.105,0.144,0.0832,0.548,0.691,0.608,0.553,–,–,–,–,–,–,–
A-427,0.454,0.472,0.453,–,0.463,0.342,0.313,0.306,0.229,1.13,1.11,1.19,1.21,0.912,0.926,0.89,1.18,1,–,–
NCI-H1703,–,–,–,–,–,–,–,–,–,0.516,0.707,0.416,0.886,–,–,–,–,–,0.671,–
ChaGo-K-1,0.485,0.535,0.589,0.41,0.489,0.464,0.545,0.428,0.451,–,–,–,–,0.522,0.548,0.594,0.702,0.459,–,0.579
Calu-6,–,–,–,–,–,–,–,–,–,1.09,0.918,1.02,0.918,–,–,–,–,–,0.986,–
HCC-366,1.07,0.934,1.17,0.692,1.27,0.648,0.561,0.648,0.594,0.698,0.643,0.951,0.567,–,–,–,–,–,–,0.584
NCI-H2342,0.668,0.69,0.578,0.517,0.619,0.628,0.558,0.694,0.593,–,–,–,–,0.674,0.71,0.576,0.783,0.537,–,0.552
EBC-1,–,–,–,–,–,–,–,–,–,0.664,0.888,0.925,0.881,–,–,–,–,–,0.964,–
NCI-H1299,–,–,–,–,–,–,–,–,–,0.943,0.951,1.05,0.975,–,–,–,–,–,1.01,–
NCI-H522,0.751,0.592,0.56,0.572,0.619,0.577,0.595,0.708,0.647,–,–,–,–,0.895,1.22,1.18,1.01,1.08,–,0.585
IA-LM,–,–,–,–,–,–,–,–,–,0.526,0.407,0.655,0.604,–,–,–,–,–,0.741,–
NCI-H2170,0.865,0.725,0.645,0.722,0.727,0.48,0.435,0.389,0.403,–,–,–,–,0.653,0.62,0.538,0.606,0.501,–,0.414
